According to PMC11224111, “Optimizing the pharmacokinetics of an ^211At-labeled RGD peptide with an albumin-binding moiety via the administration of an albumin-binding inhibitor” (European Journal of Nuclear Medicine and Molecular Imaging, 2024):
Where “and” joins values, the source holds several entries; their conditions need not be identical. Equal entries are not always repeated.

Assays:
[1] = test system: U-87 MG tumor-bearing mice; test: Biodistribution in U-87 MG tumor-bearing mice with IPBA; format: in vivo; settings: IPBA 10 eq at 1 h postinjection
Method: (§1) To prepare tumor-bearing mice, 5 × 10^6 of U-87 MG cells were subcutaneously inoculated into the right shoulder of 4-week-old female BALB/c nude mice (13–15 g, Japan SLC, Inc.) as previously reported. At approximately 10-day postinoculation of U-87 MG cells, they were used for each experiment after tumor size reached 0.3–0.5 cm^3.
At 1-h postinjection of [^211At]1 (37 kBq) and [^125I]2 (37 kBq), IPBA (1.9 mg, 6.1 µmol) was administered at 10 molar equivalent of blood albumin. Mice were sacrificed at 65-, 70-min, 2-, 4-, 12-, and 24-h postinjection of [^211At]1 and [^125I]2. Tissues of interest were removed and weighed, and radioactivity counts of ^125I and ^211At were determined with an auto well gamma counter (ARC-7010; Hitachi Medical, Ltd., Tokyo, Japan) and corrected for background radiation. To determine the radioactivity excreted from the body for 24 h, mice were housed in metabolic cages (Metabolica, Sugiyama-Gen Co., Ltd., Tokyo, Japan).

[2] = test system: U-87 MG tumor-bearing mice; design: method as in PMID 37819452; settings: until 24-h postinjection, nonadministration of IPBA; cited from earlier work
[3] = test system: U-87 MG tumor-bearing mice; design: method as in PMID 37819452; settings: 370 and 925 kBq without IPBA; cited from earlier work
[4] = test system: U-87 MG tumor-bearing mice; test: Therapeutic experiments in U-87 MG tumor-bearing mice; format: in vivo; settings: for Relative body weight / Relative tumor volume: 1.85 MBq with IPBA; for Relative body weight: relative to initial body weight; for Relative tumor volume: relative to initial tumor volume
Method: as §1
U-87 MG tumor-bearing mice were divided into three groups, [^211At]1 (1.85 MBq) (n = 6) injected group, only […] (1.85 MBq) and IPBA (n = 6) injected group, and vehicle and IPBA (n = 3) injected group as a control group. In IPBA injected group, it was administered at 10 molar equivalent of blood albumin at 1-h postinjection of [^211At]1 or vehicle. Tumor volume and body weight of mice were monitored 5 or 6 times weekly. Tumor size was measured with a slide caliper, and tumor volume was calculated using a formula: volume = 4/3 π (1/2 length × 1/2 width × 1/2 height). Tumor volume and body weight compared to the values on the day of treatment (relative tumor volume). The mice were euthanized humanely when body weight was less than 80% at baseline (day 0) or when the tumor weight reached more than 10% of body weight as the endpoint.

Ga-DOTA-K([^211At]APBA)-c(RGDfK) [[^211At]1]
Radioactivity, Blood ([1]; 65 min after administration): 13.96 (0.18) % injected activity per gram | Radioactivity, Bone ([1]; 65 min after administration): 4.07 (0.26) % injected activity per gram | Radioactivity, Brain ([1]; 65 min after administration): 0.36 (0.00) % injected activity per gram | Radioactivity, Heart ([1]; 65 min after administration): 5.28 (0.29) % injected activity per gram | Radioactivity, Kidney ([1]; 65 min after administration): 16.15 (1.45) % injected activity per gram | Radioactivity, L. intestine ([1]; 65 min after administration): 3.05 (0.10) % injected activity per gram | Radioactivity, Liver ([1]; 65 min after administration): 5.20 (0.50) % injected activity per gram | Radioactivity, Lung ([1]; 65 min after administration): 10.81 (0.60) % injected activity per gram | Radioactivity, Muscle ([1]; 65 min after administration): 2.80 (0.39) % injected activity per gram | Radioactivity, Neck ([1]; 65 min after administration): 0.04 (0.02) % injected activity | Radioactivity, Pancreas ([1]; 65 min after administration): 2.82 (0.16) % injected activity per gram | Radioactivity, S. intestine ([1]; 65 min after administration): 4.69 (0.26) % injected activity per gram | Radioactivity, Spleen ([1]; 65 min after administration): 4.06 (0.21) % injected activity per gram | Radioactivity, Stomach ([1]; 65 min after administration): 1.12 (0.28) % injected activity | Radioactivity, Tumor ([1]; 65 min after administration): 10.92 (0.34) % injected activity per gram | Radioactivity, Blood ([1]; 70 min after administration): 9.85 (0.55) % injected activity per gram | Radioactivity, Bone ([1]; 70 min after administration): 2.22 (0.60) % injected activity per gram | Radioactivity, Brain ([1]; 70 min after administration): 0.26 (0.02) % injected activity per gram | Radioactivity, Heart ([1]; 70 min after administration): 3.66 (0.27) % injected activity per gram | Radioactivity, Kidney ([1]; 70 min after administration): 11.02 (1.44) % injected activity per gram | Radioactivity, L. intestine ([1]; 70 min after administration): 2.25 (0.27) % injected activity per gram | Radioactivity, Liver ([1]; 70 min after administration): 3.72 (0.52) % injected activity per gram | Radioactivity, Lung ([1]; 70 min after administration): 7.40 (0.85) % injected activity per gram | Radioactivity, Muscle ([1]; 70 min after administration): 1.60 (0.16) % injected activity per gram | Radioactivity, Neck ([1]; 70 min after administration): 0.05 (0.00) % injected activity | Radioactivity, Pancreas ([1]; 70 min after administration): 1.95 (0.14) % injected activity per gram | Radioactivity, S. intestine ([1]; 70 min after administration): 3.61 (0.36) % injected activity per gram | Radioactivity, Spleen ([1]; 70 min after administration): 2.77 (0.39) % injected activity per gram | Radioactivity, Stomach ([1]; 70 min after administration): 0.78 (0.17) % injected activity | Radioactivity, Tumor ([1]; 70 min after administration): 10.79 (1.09) % injected activity per gram | Radioactivity, Blood ([1]; 2 h after administration): 8.06 (0.39) % injected activity per gram | Radioactivity, Bone ([1]; 2 h after administration): 3.04 (0.30) % injected activity per gram | Radioactivity, Heart ([1]; 2 h after administration): 2.86 (0.31) % injected activity per gram | Radioactivity, Kidney ([1]; 2 h after administration): 8.22 (0.51) % injected activity per gram | Radioactivity, L. intestine ([1]; 2 h after administration): 2.35 (0.97) % injected activity per gram | Radioactivity, Liver ([1]; 2 h after administration): 2.45 (0.21) % injected activity per gram | Radioactivity, Lung ([1]; 2 h after administration): 5.67 (0.59) % injected activity per gram | Radioactivity, Muscle ([1]; 2 h after administration): 1.96 (0.68) % injected activity per gram | Radioactivity, Neck ([1]; 2 h after administration): 0.04 (0.02) % injected activity | Radioactivity, Pancreas ([1]; 2 h after administration): 1.64 (0.14) % injected activity per gram | Radioactivity, S. intestine ([1]; 2 h after administration): 2.42 (0.70) % injected activity per gram | Radioactivity, Spleen ([1]; 2 h after administration): 2.34 (0.18) % injected activity per gram | Radioactivity, Stomach ([1]; 2 h after administration): 0.81 (0.05) % injected activity | Radioactivity, Tumor ([1]; 2 h after administration): 13.38 (1.48) % injected activity per gram | Radioactivity, Blood ([1]; 4 h after administration): 3.04 (0.26) % injected activity per gram | Radioactivity, Bone ([1]; 4 h after administration): 1.60 (0.14) % injected activity per gram | Radioactivity, Brain ([1]; 4 h after administration): 0.18 (0.02) % injected activity per gram | Radioactivity, Heart ([1]; 4 h after administration): 1.44 (0.10) % injected activity per gram | Radioactivity, Kidney ([1]; 4 h after administration): 5.32 (0.35) % injected activity per gram | Radioactivity, L. intestine ([1]; 4 h after administration): 4.03 (1.33) % injected activity per gram | Radioactivity, Liver ([1]; 4 h after administration): 1.34 (0.05) % injected activity per gram | Radioactivity, Lung ([1]; 4 h after administration): 3.34 (0.11) % injected activity per gram | Radioactivity, Muscle ([1]; 4 h after administration): 0.61 (0.01) % injected activity per gram | Radioactivity, Neck ([1]; 4 h after administration): 0.02 (0.00) % injected activity | Radioactivity, Pancreas ([1]; 4 h after administration): 0.93 (0.26) % injected activity per gram | Radioactivity, S. intestine ([1]; 4 h after administration): 3.03 (0.65) % injected activity per gram | Radioactivity, Spleen ([1]; 4 h after administration): 2.18 (0.13) % injected activity per gram | Radioactivity, Stomach ([1]; 4 h after administration): 0.75 (0.01) % injected activity | Radioactivity, Tumor ([1]; 4 h after administration): 12.48 (0.95) % injected activity per gram | Radioactivity, Blood ([1]; 12 h after administration): 2.71 (0.21) % injected activity per gram | Radioactivity, Bone ([1]; 12 h after administration): 1.10 (0.24) % injected activity per gram | Radioactivity, Brain ([1]; 12 h after administration): 0.12 (0.01) % injected activity per gram | Radioactivity, Heart ([1]; 12 h after administration): 1.49 (0.11) % injected activity per gram | Radioactivity, Kidney ([1]; 12 h after administration): 3.12 (0.14) % injected activity per gram | Radioactivity, L. intestine ([1]; 12 h after administration): 0.89 (0.06) % injected activity per gram | Radioactivity, Liver ([1]; 12 h after administration): 1.04 (0.12) % injected activity per gram | Radioactivity, Lung ([1]; 12 h after administration): 3.50 (0.28) % injected activity per gram | Radioactivity, Muscle ([1]; 12 h after administration): 0.54 (0.02) % injected activity per gram | Radioactivity, Neck ([1]; 12 h after administration): 0.09 (0.03) % injected activity | Radioactivity, Pancreas ([1]; 12 h after administration): 0.92 (0.08) % injected activity per gram | Radioactivity, S. intestine ([1]; 12 h after administration): 1.01 (0.14) % injected activity per gram | Radioactivity, Spleen ([1]; 12 h after administration): 1.41 (0.12) % injected activity per gram | Radioactivity, Stomach ([1]; 12 h after administration): 0.72 (0.09) % injected activity | Radioactivity, Tumor ([1]; 12 h after administration): 7.73 (0.76) % injected activity per gram | Radioactivity, Blood ([1]; 24 h after administration): 2.21 (0.38) % injected activity per gram | Radioactivity, Bone ([1]; 24 h after administration): 0.64 (0.16) % injected activity per gram | Radioactivity, Brain ([1]; 24 h after administration): 0.26 (0.31) % injected activity per gram | Radioactivity, Heart ([1]; 24 h after administration): 0.90 (0.31) % injected activity per gram | Radioactivity, Kidney ([1]; 24 h after administration): 1.91 (0.38) % injected activity per gram | Radioactivity, L. intestine ([1]; 24 h after administration): 0.41 (0.24) % injected activity per gram | Radioactivity, Liver ([1]; 24 h after administration): 0.73 (0.17) % injected activity per gram | Radioactivity, Lung ([1]; 24 h after administration): 2.31 (0.34) % injected activity per gram | Radioactivity, Muscle ([1]; 24 h after administration): 0.32 (0.07) % injected activity per gram | Radioactivity, Neck ([1]; 24 h after administration): 0.04 (0.01) % injected activity | Radioactivity, Pancreas ([1]; 24 h after administration): 0.41 (0.12) % injected activity per gram | Radioactivity, S. intestine ([1]; 24 h after administration): 0.46 (0.22) % injected activity per gram | Radioactivity, Spleen ([1]; 24 h after administration): 1.22 (0.27) % injected activity per gram | Radioactivity, Stomach ([1]; 24 h after administration): 0.61 (0.18) % injected activity | Radioactivity, Tumor ([1]; 24 h after administration): 6.15 ± 0.20 % injected activity per gram and 6.15 (0.20) % injected activity per gram | Radioactivity excreted, Feces ([1]; until 24 h postinjection): 4.09 ± 1.69 % injected activity and 4.09 (1.69) % injected activity | Radioactivity excreted, Urine ([1]; until 24 h postinjection): 38.98 ± 5.39 % injected activity and 38.98 (5.39) % injected activity | Excretion, feces [2]: 2.75 ± 0.40 %IA | Excretion, urine [2]: 10.94 ± 2.66 %IA | Weight loss and death [3]: a little weight loss, but no mice died | Body weight loss ([4]; 1.85 MBq followed by IPBA, temporary, recovered): less than 10% | Tumor growth ([4]; 1.85 MBq followed by IPBA, vs control group): significantly more inhibited than it was in the control group | Relative body weight ([4]; day 0 after injection): 1.00 (0.00) | Relative tumor volume ([4]; day 0 after injection): 1.00 (0.00) | Relative body weight ([4]; day 1 after injection): 0.99 (0.02) | Relative tumor volume ([4]; day 1 after injection): 1.14 (0.11) | Relative body weight ([4]; day 2 after injection): 0.99 (0.01) | Relative tumor volume ([4]; day 2 after injection): 1.19 (0.09) | Relative body weight ([4]; day 3 after injection): 0.97 (0.03) | Relative tumor volume ([4]; day 3 after injection): 1.23 (0.15) | Relative body weight ([4]; day 4 after injection): 0.96 (0.02) | Relative tumor volume ([4]; day 4 after injection): 1.21 (0.18) | Relative body weight ([4]; day 6 after injection): 0.93 (0.04) | Relative tumor volume ([4]; day 6 after injection): 1.24 (0.17) | Relative body weight ([4]; day 7 after injection): 0.94 (0.03) | Relative tumor volume ([4]; day 7 after injection): 1.25 (0.19) | Time within which all mice died ([4]; 1.85 MBq without IPBA): ≤ 9 days
